According to ChEMBL document CHEMBL4376829, “Discovery and biological evaluation of vinylsulfonamide derivatives as highly potent, covalent TEAD autopalmitoylation inhibitors” (Eur J Med Chem, 2019):

Experiments:
Homo sapiens [1] = organism: Homo sapiens; assay: Inhibition of TEAD transcriptional activity in human HCT116 cells assessed as reduction in CTGF expression by qRT-PCR analysis; type: cell-based
[2] = target: Insulin receptor-related protein (Homo sapiens) (UniProt P14616); assay: Inhibition of recombinant human IRR (943 to 1266 residues) at 10 uM using myelin basic protein as substrate measured after 40 mins in presence of [gamma33P]ATP by scintillation counting method relative to control
[3] = target: Ribosomal protein S6 kinase alpha-2 (Homo sapiens) (UniProt Q15349); assay: Inhibition of full length recombinant human Rsk3 at 10 uM using KKKNRTLSVA as substrate after 40 mins in presence of [gamma33P]ATP by scintillation counting method relative to control
[4] = tested on: Serine/threonine-protein kinase N1 (Homo sapiens), Q16512 [V901I]; assay: Inhibition of human PRK1 V901I mutant (498 to end residues) at 10 uM using KKLNRTLSFAEPG as substrate measured after 40 mins in presence of [gamma33P]ATP by scintillation counting method relative to control
[5] = target: Tyrosine-protein kinase HCK (Homo sapiens) (UniProt P08631); assay: Inhibition of recombinant human Hck activated (230 to 497 residues) at 10 uM using GGMEDIYFEFMGGKKK as substrate after 40 mins in presence of [gamma33P]ATP by scintillation counting method relative to control
[6] = tested on: eIF-2-alpha kinase GCN2 (Homo sapiens), Q9P2K8 [E556G]; assay: Inhibition of full length recombinant human GCN2 E556G mutant at 10 uM using RSRSRSRSRSRSRSR as substrate after 40 mins in presence of [gamma33P]ATP by scintillation counting method relative to control
eIF-2-alpha kinase GCN2 (Homo sapiens), Q9P2K8 [E556G], sequence (Q9P2K8 whole entry E556G): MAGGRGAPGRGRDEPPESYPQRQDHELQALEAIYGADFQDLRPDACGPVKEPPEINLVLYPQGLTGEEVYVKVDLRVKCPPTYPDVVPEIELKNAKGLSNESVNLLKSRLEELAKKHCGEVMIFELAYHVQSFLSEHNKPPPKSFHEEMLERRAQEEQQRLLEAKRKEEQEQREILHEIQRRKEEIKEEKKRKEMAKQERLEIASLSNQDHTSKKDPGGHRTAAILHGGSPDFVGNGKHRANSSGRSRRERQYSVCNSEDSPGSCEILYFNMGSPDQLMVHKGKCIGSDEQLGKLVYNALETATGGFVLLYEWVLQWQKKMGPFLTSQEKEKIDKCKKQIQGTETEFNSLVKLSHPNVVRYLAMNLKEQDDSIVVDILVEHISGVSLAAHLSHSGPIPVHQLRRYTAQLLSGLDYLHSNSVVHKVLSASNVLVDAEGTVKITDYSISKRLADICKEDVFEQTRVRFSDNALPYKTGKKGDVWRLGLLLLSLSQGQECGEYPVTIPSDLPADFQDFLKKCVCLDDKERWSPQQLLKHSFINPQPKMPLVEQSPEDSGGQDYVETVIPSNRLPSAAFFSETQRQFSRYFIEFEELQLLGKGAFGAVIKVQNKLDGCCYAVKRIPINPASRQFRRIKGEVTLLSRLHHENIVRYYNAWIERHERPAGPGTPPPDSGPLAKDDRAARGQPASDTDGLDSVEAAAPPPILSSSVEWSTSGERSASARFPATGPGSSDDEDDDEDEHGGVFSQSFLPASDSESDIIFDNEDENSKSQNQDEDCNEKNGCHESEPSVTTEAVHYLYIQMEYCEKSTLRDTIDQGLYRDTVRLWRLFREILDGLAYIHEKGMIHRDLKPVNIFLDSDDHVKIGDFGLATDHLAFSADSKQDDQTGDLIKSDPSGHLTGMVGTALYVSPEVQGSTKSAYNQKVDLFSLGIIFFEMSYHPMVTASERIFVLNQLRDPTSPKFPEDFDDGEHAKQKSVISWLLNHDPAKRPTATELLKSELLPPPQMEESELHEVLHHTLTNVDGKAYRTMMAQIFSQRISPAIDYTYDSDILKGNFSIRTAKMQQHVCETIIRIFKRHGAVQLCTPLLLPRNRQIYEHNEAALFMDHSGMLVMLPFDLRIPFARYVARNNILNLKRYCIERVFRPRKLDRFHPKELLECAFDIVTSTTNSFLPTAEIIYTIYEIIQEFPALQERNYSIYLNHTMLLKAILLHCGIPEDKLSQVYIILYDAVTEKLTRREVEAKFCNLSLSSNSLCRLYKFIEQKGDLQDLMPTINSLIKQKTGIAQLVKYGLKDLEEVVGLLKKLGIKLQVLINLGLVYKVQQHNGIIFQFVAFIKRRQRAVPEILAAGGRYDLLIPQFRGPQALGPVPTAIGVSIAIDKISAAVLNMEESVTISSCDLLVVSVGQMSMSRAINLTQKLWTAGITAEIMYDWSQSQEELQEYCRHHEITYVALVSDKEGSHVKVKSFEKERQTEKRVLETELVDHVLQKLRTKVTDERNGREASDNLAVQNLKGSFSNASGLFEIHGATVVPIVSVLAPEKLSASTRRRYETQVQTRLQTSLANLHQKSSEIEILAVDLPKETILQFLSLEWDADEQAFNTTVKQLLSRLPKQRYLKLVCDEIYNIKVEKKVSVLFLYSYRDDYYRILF

[7] = target: Phosphatidylinositol 4-phosphate 5-kinase type-1 gamma (Homo sapiens) (UniProt O60331); assay: Inhibition of recombinant full-length human PIP5K1g at 10 uM using phosphatidylinositol 4-phosphate as substrate measured after 40 mins by fluorescence assay relative to control
[8] = target: Eukaryotic translation initiation factor 2-alpha kinase 3 (Homo sapiens) (UniProt Q9NZJ5); assay: Inhibition of recombinant human PEK (536 to end residues) at 10 uM using RSRSRSRSRSRSRSR as substrate measured after 40 mins in presence of [gamma33P]ATP by scintillation counting method relative to control
[9] = target: Focal adhesion kinase 1 (Homo sapiens) (UniProt Q05397); assay: Inhibition of recombinant human FAK (411 to 686 residues) at 10 uM using EEEEYEEEEEEYYIIEEEEEEYEEEEEEYYEEEEEEKKKK as substrate measured after 40 mins in presence of [gamma33P]ATP by scintillation counting method relative to control
[10] = target: Ephrin type-A receptor 5 (Homo sapiens) (UniProt P54756); assay: Inhibition of human EPHA5 (655 to 956 residues) using poly (Glu, Tyr) 4:1 as substrate at 10 uM after 40 mins in presence of [gamma-33P]-ATP by scintillation counting relative to control
[11] = tested on: RAF proto-oncogene serine/threonine-protein kinase (Homo sapiens), P04049 [Y340D,Y341D]; assay: Inhibition of recombinant human c-RAF Y340D/Y341D mutant (360 to end residues) at 10 uM using inactive MEK1 as substrate measured after 40 mins in presence of [gamma33P]ATP by scintillation counting method relative to control
[12] = target: Serine/threonine-protein kinase Nek2 (Homo sapiens) (UniProt P51955); assay: Inhibition of recombinant human full length NEK2 at 10 uM using myelin basic protein as substrate incubated for 40 mins in presence of [gamma-33P]-ATP by scintillation counting method relative to control
[13] = target: Serine/threonine-protein kinase mTOR (Homo sapiens) (UniProt P42345); assay: Inhibition of recombinant full-length human mTOR at 10 uM after 40 mins in presence of [gamma33P]ATP by scintillation counting analysis relative to control
Saccharomyces cerevisiae = assay: Inhibition of recombinant fungi CK1 (2 to 298 residues) at 10 uM using KRRRALS(p)VAS as substrate incubated for 40 mins in presence of [gamma-33P]-ATP by scintillation counting method relative to control
[14] = tested on: CDK18/Cyclin Y (Homo sapiens), Q07002+Q8ND76 [T166M]; assay: Inhibition of recombinant full length human cyclinY/CDK18 T166M mutant at 10 uM using YRRAAVPPSPSLS as substrate measured after 40 mins in presence of [gamma33P]ATP by scintillation counting method relative to control; type: protein-complex assay
[15] = target: Cyclin-dependent kinase 1/cyclin B1 (Homo sapiens) (UniProt P06493+P14635); assay: Inhibition of full-length recombinant human CDK1/cyclinB at 10 uM using histone H1 as substrate after 40 mins by in presence of [gamma33P]ATP by scintillation counting method relative to control; type: protein-complex assay
Homo sapiens [16] = organism: Homo sapiens; assay: Inhibition of recombinant human Mer H628Q/R794A mutant (557 to 882 residues) at 10 uM using GGMEDIYFEFMGGKKK as substrate measured after 40 mins in presence of [gamma33P]ATP by scintillation counting method relative to control
[17] = target: Leukocyte tyrosine kinase receptor (Homo sapiens) (UniProt P29376); assay: Inhibition of recombinant human LTK (450 to end residues) at 10 uM using GEEPLYWSFPAKKK as substrate measured after 40 mins in presence of [gamma33P]ATP by scintillation counting method relative to control
Leukocyte tyrosine kinase receptor (Homo sapiens), sequence (P29376 whole entry): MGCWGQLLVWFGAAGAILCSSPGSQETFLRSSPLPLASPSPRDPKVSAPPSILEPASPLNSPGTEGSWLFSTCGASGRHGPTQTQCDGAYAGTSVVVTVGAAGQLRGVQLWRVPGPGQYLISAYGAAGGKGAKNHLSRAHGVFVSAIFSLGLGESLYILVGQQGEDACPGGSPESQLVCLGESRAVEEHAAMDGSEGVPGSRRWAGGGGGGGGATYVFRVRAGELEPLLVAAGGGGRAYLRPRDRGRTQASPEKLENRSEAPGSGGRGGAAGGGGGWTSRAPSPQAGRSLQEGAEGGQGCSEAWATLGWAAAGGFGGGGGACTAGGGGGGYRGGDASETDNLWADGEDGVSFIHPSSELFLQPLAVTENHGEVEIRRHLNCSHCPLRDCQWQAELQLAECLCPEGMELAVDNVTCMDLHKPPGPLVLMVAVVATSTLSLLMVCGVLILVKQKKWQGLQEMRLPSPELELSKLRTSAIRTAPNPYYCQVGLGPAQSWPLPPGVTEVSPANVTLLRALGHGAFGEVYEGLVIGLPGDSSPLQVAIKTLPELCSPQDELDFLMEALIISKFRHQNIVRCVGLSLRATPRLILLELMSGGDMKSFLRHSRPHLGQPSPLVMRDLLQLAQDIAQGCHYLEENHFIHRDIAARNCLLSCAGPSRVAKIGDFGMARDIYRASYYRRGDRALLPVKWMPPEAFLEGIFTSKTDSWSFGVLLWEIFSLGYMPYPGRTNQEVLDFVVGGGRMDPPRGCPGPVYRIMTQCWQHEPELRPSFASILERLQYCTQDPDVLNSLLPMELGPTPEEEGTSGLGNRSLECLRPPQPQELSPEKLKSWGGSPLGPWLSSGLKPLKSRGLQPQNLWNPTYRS

[18] = target: Calcium/calmodulin-dependent protein kinase type 1 (Homo sapiens) (UniProt Q14012); assay: Inhibition of recombinant full length human CAMK1 (2 to end residues) at 10 uM using […] as substrate incubated for 40 mins in presence of [gamma-33P]-ATP by scintillation counting method relative to control
[19] = target: 5'-AMP-activated protein kinase catalytic subunit alpha-1 (Homo sapiens) (UniProt Q13131); assay: Inhibition of recombinant full length human AMPKalpha1 at 10 uM using AMARAASAAALARRR as substrate after 40 mins in presence of [gamma33P]ATP by scintillation counting method relative to control
[20] = target: Histone-arginine methyltransferase CARM1 (Homo sapiens) (UniProt Q86X55); assay: Inhibition of human PRMT4 at 10 uM relative to control
Histone-arginine methyltransferase CARM1 (Homo sapiens), sequence (Q86X55 whole entry): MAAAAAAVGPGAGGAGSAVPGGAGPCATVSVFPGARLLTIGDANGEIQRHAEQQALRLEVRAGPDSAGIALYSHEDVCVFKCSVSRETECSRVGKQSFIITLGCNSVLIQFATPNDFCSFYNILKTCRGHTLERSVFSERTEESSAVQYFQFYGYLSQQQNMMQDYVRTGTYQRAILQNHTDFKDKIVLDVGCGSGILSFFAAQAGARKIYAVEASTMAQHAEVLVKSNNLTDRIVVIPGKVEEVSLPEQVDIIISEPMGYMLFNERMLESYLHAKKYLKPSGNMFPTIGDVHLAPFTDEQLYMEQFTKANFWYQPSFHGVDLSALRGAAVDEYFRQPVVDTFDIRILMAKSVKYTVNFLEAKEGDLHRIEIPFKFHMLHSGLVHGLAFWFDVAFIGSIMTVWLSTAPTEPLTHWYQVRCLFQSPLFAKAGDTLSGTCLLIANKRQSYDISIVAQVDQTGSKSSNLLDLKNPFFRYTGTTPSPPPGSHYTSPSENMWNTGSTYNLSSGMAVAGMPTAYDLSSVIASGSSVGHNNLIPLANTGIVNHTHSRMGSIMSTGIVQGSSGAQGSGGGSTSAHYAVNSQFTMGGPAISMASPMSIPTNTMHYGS

[21] = target: Histone acetyltransferase KAT2A (Homo sapiens) (UniProt Q92830); assay: Inhibition of human GCN5 at 10 uM after 1 hr by radioisotope-based assay relative to control
[22] = target: Histone acetyltransferase KAT6A (Homo sapiens) (UniProt Q92794); assay: Inhibition of human MOZ at 10 uM relative to control
Histone acetyltransferase KAT6A (Homo sapiens), sequence (Q92794 whole entry, looked up): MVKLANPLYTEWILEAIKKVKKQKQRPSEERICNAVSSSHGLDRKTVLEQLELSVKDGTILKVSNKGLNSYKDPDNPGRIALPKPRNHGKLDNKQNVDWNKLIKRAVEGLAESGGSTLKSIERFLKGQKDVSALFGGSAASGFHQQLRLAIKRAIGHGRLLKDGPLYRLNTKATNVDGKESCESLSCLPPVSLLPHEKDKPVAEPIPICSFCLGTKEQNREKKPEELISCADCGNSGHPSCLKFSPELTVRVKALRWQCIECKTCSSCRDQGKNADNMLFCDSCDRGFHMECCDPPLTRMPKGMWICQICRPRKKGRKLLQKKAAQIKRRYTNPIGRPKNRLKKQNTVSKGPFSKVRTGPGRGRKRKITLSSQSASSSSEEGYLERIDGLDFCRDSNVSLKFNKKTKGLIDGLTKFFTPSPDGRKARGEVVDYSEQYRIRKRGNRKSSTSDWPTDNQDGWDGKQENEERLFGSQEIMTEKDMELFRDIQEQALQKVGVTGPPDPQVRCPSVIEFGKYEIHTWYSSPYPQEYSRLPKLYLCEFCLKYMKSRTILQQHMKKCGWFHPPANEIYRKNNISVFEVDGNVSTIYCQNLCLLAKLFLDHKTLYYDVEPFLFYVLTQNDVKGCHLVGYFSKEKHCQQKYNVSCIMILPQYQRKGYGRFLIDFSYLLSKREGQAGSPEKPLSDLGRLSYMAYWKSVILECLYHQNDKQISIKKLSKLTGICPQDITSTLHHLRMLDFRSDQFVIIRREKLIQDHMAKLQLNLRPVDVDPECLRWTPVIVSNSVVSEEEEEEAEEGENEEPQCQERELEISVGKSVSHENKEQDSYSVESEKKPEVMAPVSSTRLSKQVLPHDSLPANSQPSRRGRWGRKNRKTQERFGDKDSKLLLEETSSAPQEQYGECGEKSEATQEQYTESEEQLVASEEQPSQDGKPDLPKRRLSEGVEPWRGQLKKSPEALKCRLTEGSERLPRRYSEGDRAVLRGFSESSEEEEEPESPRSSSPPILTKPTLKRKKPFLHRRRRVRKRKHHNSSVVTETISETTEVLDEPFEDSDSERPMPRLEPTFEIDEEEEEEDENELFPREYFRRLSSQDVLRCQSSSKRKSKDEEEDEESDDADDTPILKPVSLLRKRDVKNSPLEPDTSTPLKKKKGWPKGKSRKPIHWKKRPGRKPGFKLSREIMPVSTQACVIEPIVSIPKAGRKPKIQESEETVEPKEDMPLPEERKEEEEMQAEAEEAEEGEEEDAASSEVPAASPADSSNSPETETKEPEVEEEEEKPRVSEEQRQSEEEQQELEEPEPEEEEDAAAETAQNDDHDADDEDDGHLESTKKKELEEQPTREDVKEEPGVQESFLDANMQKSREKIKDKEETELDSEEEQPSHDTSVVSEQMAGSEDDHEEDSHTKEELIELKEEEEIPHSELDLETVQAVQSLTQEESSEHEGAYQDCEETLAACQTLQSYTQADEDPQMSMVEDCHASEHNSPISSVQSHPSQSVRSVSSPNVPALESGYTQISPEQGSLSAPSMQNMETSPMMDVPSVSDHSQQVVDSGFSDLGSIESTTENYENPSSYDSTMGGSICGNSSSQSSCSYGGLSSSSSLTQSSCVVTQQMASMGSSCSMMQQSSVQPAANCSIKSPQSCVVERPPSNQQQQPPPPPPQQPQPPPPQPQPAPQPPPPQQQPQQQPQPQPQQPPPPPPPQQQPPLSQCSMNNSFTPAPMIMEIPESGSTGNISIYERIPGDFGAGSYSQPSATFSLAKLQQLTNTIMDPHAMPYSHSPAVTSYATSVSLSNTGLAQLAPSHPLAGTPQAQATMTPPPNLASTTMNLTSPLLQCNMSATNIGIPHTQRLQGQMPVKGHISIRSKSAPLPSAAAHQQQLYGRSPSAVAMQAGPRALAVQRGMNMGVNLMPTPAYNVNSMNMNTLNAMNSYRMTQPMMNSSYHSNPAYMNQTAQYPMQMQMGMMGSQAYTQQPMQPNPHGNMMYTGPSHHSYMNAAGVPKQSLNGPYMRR

[23] = target: Serine-protein kinase ATM (Homo sapiens) (UniProt Q13315); assay: Inhibition of recombinant full-length human ATM at 10 uM using GST-cMyc-p53 as substrate measured after 40 mins by EIA method relative to control

In the case of `C=CS(=O)(=O)Nc1ccc(Cc2ccc3ccccc3c2)cc1`, the inhibition (Homo sapiens [1]) is reported as “Dose-dependent effect”, the inhibition [2] is reported as 13% and the inhibition [3] is reported as 9%. It also gave an inhibition [4] of 2%, an inhibition [5] of 3% and an inhibition [6] of 3%. It also gave an inhibition [7] of -3%, an inhibition [8] of -1% and an inhibition [9] of -3%. The inhibition [10] was 16%, the inhibition [11] was -8% and the inhibition [12] was -5%. It also gave an inhibition [13] of 5%, an inhibition (Saccharomyces cerevisiae) of 5% and an inhibition [14] of -5%. The inhibition [15] was 4%, the inhibition (Homo sapiens [16]) was 13% and the inhibition [17] was 7%. For the same molecule, the inhibition [18] was 6%, the inhibition [19] was 2% and the inhibition [20] was 5%. It also gave an inhibition [21] of 2%, an inhibition [22] of 7% and an inhibition [23] of 2%.
